Measured values taken from US12582644B2, “O-GlcNAc transferase inhibitors and uses thereof” (President and Fellows of Harvard College, priority 2018, dated 2026).
Converted amounts (≈) assume the structure as drawn.

What was measured:
[1] = PAMPA assay; assay type: in vitro ADME; conditions: read-out: Permeability
[2] = Kinetic solubility; assay type: physicochemical; conditions: kinetic from dmso stock
[3] = Rat liver microsome stability assay; assay type: in vitro ADME; conditions: rat liver microsomes; read-out: RLM Stability (t1/2)
[4] = target: T1, ncOGT (Homo sapiens, UniProt O15294); assay: UDP-Glo Glycosyltransferase Assay (IC50/Ki); assay type: biochemical
T1 construct: Full length human OGT (ncOGT); made in house
T1 sequence (O15294 1-1046): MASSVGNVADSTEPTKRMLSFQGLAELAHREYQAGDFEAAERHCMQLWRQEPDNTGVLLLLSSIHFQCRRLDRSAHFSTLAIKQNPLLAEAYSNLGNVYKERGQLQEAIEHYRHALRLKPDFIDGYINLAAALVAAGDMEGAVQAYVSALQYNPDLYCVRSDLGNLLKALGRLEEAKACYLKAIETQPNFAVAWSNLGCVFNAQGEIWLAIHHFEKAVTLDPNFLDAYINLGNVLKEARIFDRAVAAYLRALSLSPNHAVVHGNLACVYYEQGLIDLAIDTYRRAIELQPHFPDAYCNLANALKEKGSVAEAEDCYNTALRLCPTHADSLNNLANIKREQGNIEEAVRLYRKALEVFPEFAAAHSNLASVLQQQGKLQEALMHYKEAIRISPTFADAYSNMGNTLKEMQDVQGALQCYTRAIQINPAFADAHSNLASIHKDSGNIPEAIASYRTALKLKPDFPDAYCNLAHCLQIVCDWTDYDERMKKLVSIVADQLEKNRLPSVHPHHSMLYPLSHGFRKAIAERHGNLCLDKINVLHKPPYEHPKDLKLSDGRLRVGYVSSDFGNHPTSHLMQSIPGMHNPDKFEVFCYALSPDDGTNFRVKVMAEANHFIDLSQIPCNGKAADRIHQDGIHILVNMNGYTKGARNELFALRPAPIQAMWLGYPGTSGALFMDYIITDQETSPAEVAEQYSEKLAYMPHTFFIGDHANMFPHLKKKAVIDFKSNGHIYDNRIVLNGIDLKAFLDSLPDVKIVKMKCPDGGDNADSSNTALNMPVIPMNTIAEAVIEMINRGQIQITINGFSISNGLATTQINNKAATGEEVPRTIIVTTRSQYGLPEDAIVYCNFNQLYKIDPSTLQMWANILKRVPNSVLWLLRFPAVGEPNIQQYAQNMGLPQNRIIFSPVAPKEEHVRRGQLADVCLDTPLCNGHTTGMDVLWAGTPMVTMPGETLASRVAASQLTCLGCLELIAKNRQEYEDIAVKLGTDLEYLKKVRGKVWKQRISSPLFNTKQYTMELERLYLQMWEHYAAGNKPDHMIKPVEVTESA
Experimental: Materials for this assay were obtained from Promega (catalog #V6961). […] Assays were performed in white, 384-well or H volume 96-well plates. Quantities in parenthesis apply to reactions run in H volume 96-well plates. Reaction volumes were 12 (24) μL. […] The quenched reactions were then mixed briefly by shaking at 600 rpm in a Thermomixer C, spun down at 400×g for 1 minute, and incubated for one hour at room temperature prior to reading luminescence, as per the manufacturer's guidelines. Data were analyzed by Microsoft Excel and Prism 7 (Graphpad). […] Each sample was run in duplicate, unless otherwise specified.

[5] = target: T2, full length OGT (Homo sapiens, UniProt O15294); assay: Dissociation constants by microscale thermophoresis (MST); conditions: read-out: Binding affinity (Kd ± s.d.), binding of compounds to OGT
T2 sequence (O15294 1-1046): T1 sequence (O15294 1-1046)
Experimental: Excess NHS-ester was removed with a Zeba™ Spin desalting column (ThermoFisher). A range of concentrations of the ligand were prepared in which the concentration of labeled OGT was kept constant at 5 nM, and all experiments were performed in MST running buffer (PBS, pH 7.4, 0.05% Tween-20, 1 mM DTT, 2% glycerol, 0.5% DMSO). Mixtures were incubated for at least 10 minutes to facilitate binding before MST experiments. MST experiments were carried out using 60% LED power and 20% MST power in standard capillaries (from NanoTemper Technologies). […] Kd values were calculated using a user-defined mass action equation in the GraphPad Prism 6 software (GraphPad Software, Inc.).

[6] = target: T3, OGT (Homo sapiens, UniProt O15294); conditions: SPR, value in parentheses; read-out: Binding affinity (Kd ± s.d.) determined by SPR; cited from earlier work
T3 sequence (O15294 1-1046): T1 sequence (O15294 1-1046)

[7] = tested on: global O-GlcNAcylation in HCT116 cells; assay: Western blotting for global O-GlcNAc levels in HCT116 cells; assay type: cell-based; conditions: for O-GlcNAc levels, dose dependence: HCT116, 20-80 μM, 4 hours or 24 hours
[8] = tested on: OGT's detained intron (intron 4) in HEK293T cells; assay: Quantitative PCR of OGT detained intron splicing; assay type: cell-based; conditions: 10 μM, 2-hour treatment
Experimental: Total RNA was harvested directly from tissue culture plates using Trizol (Life Technologies) according to the manufacturer's directions. In all experiments, total RNA was treated with Turbo DNase (Life Technologies) to remove any residual DNA contamination, extracted in acid-buffered phenol/chloroform, and ethanol-precipitated. Reverse transcription was performed using 2 μg of DNase-treated total RNA in a 20 μL reaction following the manufacturer's protocol (SuperScript III, Life Technologies) for 1 h at 50° C. cDNA reactions were […] diluted 1:10, and 1 μL was used in each PCR reaction. Real-time qRT-PCR was performed using PowerUp SYBR Green (Life Technologies) on a StepOne-Plus Real-Time PCR System (Applied Biosystems).

[9] = tested on: global O-GlcNAcylation in PC3 cells; assay: Western blotting for O-GlcNAc levels in PC3 cells; conditions: PC3 prostate cancer cells
Experimental: (§3) Cells were plated and grown in their respective media until they reached a confluency of 60-80%. […] For all other cell lines, compounds were dissolved in 0.2 mL of fresh media and then added directly to the cells.
(§4) Cell lysates for from HEK293T, LNCaP, HCT116 and PC3 cells were prepared for western blotting in the following manner, and all the steps were conducted at 4° C. […] Samples were transferred to a nitrocellulose membrane (Bio-Rad). Membranes were blocked with 5% bovine serum albumin in TBST and probed with primary antibodies overnight at 4° C. and for 1 h at RT with peroxidase conjugated secondary antibodies, as indicated in each figure. Blots were developed using enhanced chemiluminescence (Pierce) and visualized with an Amersham Imager 600.

[10] = tested on: HCT116 cells; assay: Cell viability and live-cell imaging (IncuCyte confluence, CellTiter-Glo); assay type: cell-based; conditions: for cellular confluency relative to DMSO control: HCT116, 40 μM, 96 hours; for cell growth: HCT116, 96 hours, 10 or 40 μM
Experimental: (§1) HCT116 cells were plated into 384-well plate one day prior to treatment with compounds (300 cells per well). Compounds were dispensed using a D300e Digital Dispenser (Tecan). Cells were imaged every 3 hours using an IncuCyte ZOOM instrument (Sartorius) to generate growth curves. After four days of treatment, cell viability was assessed using the CellTiter-Glo® Luminescent Cell Viability Assay (Promega). Luminescence signal was recorded using the GloMax® Explorer System (Promega). For Cytotoxicity, HEK293T cells were plated into a 96-well plate two days prior to treatment with compounds at 80% confluency. The number of dead cells were assessed by CellTox™ Green Cytotoxicity Assay (Promega).

[11] = tested on: HCF-1 cleavage in HEK293T cells; assay: HCF-1 cleavage in HEK293T cells (Western blotting); assay type: cell-based; conditions: for uncleaved HCF-1: over 96 hours
Source text: (§2) In addition to glycosylating Ser/Thr residues of proteins, OGT catalyzes cleavage of the cell-cycle regulator HCF-1 by glycosylating a glutamate in the HCF-1 cleavage sequence.^4c,7 An OGT inhibitor would be expected to block cleavage. Indeed, a decrease in HCF-1 cleavage products and the appearance of uncleaved HCF-1 in cells treated with 1b, 2b or 4b was observed (FIGS. 2E, 16). Because OGT knockdown is known to decrease cell proliferation,^8 the effects of 1b, 2b, and 4b on cell growth in culture over 96 hours were also monitored. Although there was no evidence of apoptosis, reduced growth of cells was observed over time (FIG. 17), consistent with the knockdown results.

[12] = tested on: global O-GlcNAcylation in LNCaP cells; assay: Western blotting for O-GlcNAc levels in LNCaP cells; conditions: LNCaP prostate cancer cells
Experimental: as §3, §4

[13] = tested on: HEK293T cells; assay: Quantitative proteomics / protein abundance in HEK293T cells; conditions: 20 μM
Experimental: At the indicated time point, cells were lysed in lysis buffer (2% SDS 50 mM Tris-HCl and 150 mM NaCl), sonicated (BioDisruptor) and protein concentration determined with the BCA assay. Samples were reduced with 5 mM DTT for 45 mins at 60° C., then alkylated with 14 mM iodoacetamide for 45 mins at room temperature in the dark. Then 100 μg of protein was precipitated using chloroform/methanol.^32 Protein pellets were resuspended in 200 mM HEPES pH 8.5 to 1 mg/mL. Proteins were digested with LysC (Wako) (substrate:enzyme=100) overnight at 37° C. and then with sequencing grade Trypsin (Promega) (substrate:enzyme=100) for 6 hours at 37° C. The resulting peptide solutions were then labelled with TMT 10/11-plex reagents (Thermo Scientific) for 1.5 hours at room temperature. Reactions were stopped by addition of 5% hydroxylamine for 30 minutes. Equal amounts of peptide samples were combined, dried by vacuum centrifugation and desalted on a Waters C18 solid phase extraction Sep-Pak. TMT-labeled peptide samples were fractionated via basic-pH reverse-phase (BPRP) HPLC to 96 fractions and then consolidated to 12 fractions. These fractions were subsequently acidified with 1% formic acid, vacuum centrifuged to near dryness and desalted with C18 stagetips.^32 Dried peptides were resuspended in 5% acetonitrile/5% formic acid for LC-MS/MS processing. […]
Precursors for MS2/MS3 analysis were selected using a Top10 method. […] Following acquisition of each MS2 spectrum, an MS3 spectrum was collected using the recently described method in which multiple MS2 fragment ions were captured in the MS3 precursor population using isolation waveforms with multiple frequency notches.^33b MS3 precursors were fragmented by high energy collision-induced dissociation (HCD) and analyzed using the Orbitrap (NCE 65; AGC 1.5×10^5; maximum injection time 150 ms, resolution was 50,000 at 400 Th, isolation window 0.7 Da).
Mass spectra were processed using a SEQUEST-based pipeline^23 Spectra were converted to mzXML using a modified version of ReAdW.exe. […]

[14] = tested on: HEK293T cells; assay: CellTox Green Cytotoxicity Assay; assay type: cell-based; conditions: 24 hours, 0-50 μM
Experimental: as §1

[15] = tested on: global O-GlcNAcylation in HEK293T cells; assay: Western blotting for global O-GlcNAc levels in HEK293T cells; assay type: cell-based; conditions: for protein O-GlcNAcylation: from 2 hours (FIG. 13E); for global O-GlcNAc levels, dose dependence: 4 hours (FIG. 13C); for O-GlcNAc levels after prolonged treatment: 96 hours (FIG. 13E)
[16] = tested on: HCF-1 cleavage in HCT116 cells; assay: HCF-1 cleavage in HCT116 cells (Western blotting); assay type: cell-based; conditions: HCT116, 20-80 μM, 24 hours
Source text: as §2

## CCOC(=O)CN(Cc1cccs1)C(=O)[C@H](NS(=O)(=O)c1cc2ccc(=O)[nH]c2cc1Cl)c1ccccc1OC [drawing 86]
[1]
  Papp: 540 ×10⁻⁶ cm/s
[2]
  solubility: 19 µg/mL (≈ 31.5 µM)
[3]
  half-life: 1.9 min

## CCOC(=O)CN(Cc1cccs1)C(=O)[C@H](NS(=O)(=O)c1cc2ccc(=O)[nH]c2cc1C)c1ccccc1OC
[1]
  Papp: 511 ×10⁻⁶ cm/s
[4]; UDP-Glo assay, 300 nM ncOGT, 40 μM UDP-GlcNAc
  IC50: 1.8 µM
[4]; calculated from IC50 (UDP-Glo) by Cheng-Prusoff
  Ki: 0.103 µM
[2]
  solubility: 21.1 µg/mL (≈ 36.1 µM)
[3]
  half-life: 1.3 min

## CC(=O)N[C@H]1[C@@H](OP(=O)(O)OP(=O)(O)OC[C@H]2O[C@@H](n3ccc(=O)[nH]c3=O)[C@H](O)[C@@H]2O)O[C@H](CO)[C@@H](O)[C@@H]1O [UDP-GlcNAc, reference compound]
[5]
  Kd: 16 ± 4 µM
[6]
  Kd: 16.1 µM

## COC(=O)CN(Cc1cccs1)C(=O)[C@H](NS(=O)(=O)c1ccc2[nH]c(=O)ccc2c1)c1ccccc1OC [1b, Methyl (R)—N-(2-(2-methoxyphenyl)-2-((2-oxo-1,2-dihydroquinoline)-6-sulfonamido)acetyl)-N-(thiophen-2-ylmethyl)glycinate]
[7]
  O-GlcNAc levels, dose dependence: dose dependent decreases in O-GlcNAc levels
[8]
  detained intron splicing of OGT transcript: increased detained intron splicing
[9]
  O-GlcNAc levels: Decreases in O-GlcNAc levels
[10]
  cellular confluency relative to DMSO control: confluency is reduced
  cell growth: reduced cell growth compared with the control
[11]
  uncleaved HCF-1: time dependent increase in uncleaved HCF-1
[12]
  O-GlcNAc levels: Decreases in O-GlcNAc levels
[13]; 4 and 24 hours
  OGT level (Western blotting): an increase in OGT
[13]; 24 hr
  changes in abundance of other proteins (off-target activity): Few significant changes
[13]; time course 8, 16, 24 hours
  abundance of OGT and OGA (proteomics): reciprocal changes in the abundance of OGT and OGA
[14]
  cytotoxic cell death: did not result in cytotoxic cell death
[15]; HEK293T, 20 μM, 24 hours (FIG. 13B)
  O-GlcNAc levels: O-GlcNAc levels recover after 24 hours
[15]; HEK293T, 20 μM
  protein O-GlcNAcylation: decreased protein O-GlcNAcylation in as little as 2 hours
[15]; HEK293T
  global O-GlcNAc levels, dose dependence: dose dependent decreases in global O-GlcNAc levels
  O-GlcNAc levels after prolonged treatment: recover
[15]; short treatment times (<8 hr)
  ability to inhibit global O-GlcNAcylation: decent inhibitor

## CCOC(=O)CCCOc1ccccc1[C@@H](NS(=O)(=O)c1ccc2[nH]c(=O)ccc2c1)C(=O)N(CC(=O)OCC)Cc1cccs1 [2b, Ethyl (R)-4-(2-(2-((2-ethoxy-2-oxoethyl)(thiophen-2-ylmethyl)amino)-2-oxo-1-((2-oxo-1,2-dihydroquinoline)-6-sulfonamido)ethyl)phenoxy)butanoate]
[7]
  O-GlcNAc levels, dose dependence: dose dependent decreases in O-GlcNAc levels
[7]; HCT116, 24-hour treatment, 20 μM (FIG. 15B)
  global O-GlcNAc levels, comparison with 1b: more effective than 1b
[16]
  HCF-1 cleavage, 2b compared with 1b: more effective at reducing HCF-1 cleavage
[8]
  detained intron splicing of OGT transcript: increased detained intron splicing
[9]
  O-GlcNAc levels: Decreases in O-GlcNAc levels
[10]
  cellular confluency relative to DMSO control: confluency is reduced
  cell growth: reduced cell growth compared with the control
[11]; 20 μM, 48 hours
  HCF-1 cleavage: blocked HCF-1 cleavage
[11]
  uncleaved HCF-1: time dependent increase in uncleaved HCF-1
[12]
  O-GlcNAc levels: Decreases in O-GlcNAc levels
[14]
  cytotoxic cell death: did not result in cytotoxic cell death
[15]; HCT116, HEK293T, PC3, and LNCaP cells
  ability to inhibit global O-GlcNAcylation, ranking: best activity
[15]; HEK293T, 20 μM
  protein O-GlcNAcylation: decreased protein O-GlcNAcylation in as little as 2 hours
[15]; HEK293T
  global O-GlcNAc levels, dose dependence: dose dependent decreases in global O-GlcNAc levels
  O-GlcNAc levels after prolonged treatment: remain very low
